Seven molecules from US20180125995A1, “ANTI-STAPHYLOCOCCUS AUREUS ANTIBODY RIFAMYCIN CONJUGATES AND USES THEREOF” (priority 2014, published 2018) can be followed below.

Values after ≈ are worked out from the molar mass of the structure shown. Some results are limits rather than exact numbers.

The subject of assay [1] is MRSA (NRS384 strain of USA300). Briefly: MIC determination for extracellular bacteria in liquid culture. Particulars: Staphylococcus aureus, read-out: Extracellular MRSA MIC. It is filed as cell-based. As to the method: The MIC for extracellular bacteria was determined by preparing serial 2-fold dilutions of the antibiotic in Tryptic Soy Broth. Dilutions of the antibiotic were made in quadruplicate in 96 well culture dishes. MRSA (NRS384 strain of USA300) was taken from an exponentially growing culture and diluted to 1×10^4 CFU/mL. The bacteria was cultured in the presence of antibiotic for 18-24 hours with shaking at 37° C. and bacterial growth was determined by reading the Optical Density (OD) at […]. The MIC was determined to be the dose of antibiotic that inhibited bacterial growth by >90%.
(§1) For extracellular bacteria, MRSA was cultured overnight in Tryptic Soy Broth, and the MIC was determined to be the minimum antibiotic dose that prevented growth. For intracellular bacteria, murine peritoneal macrophages were infected with MRSA and cultured in the presence of gentamycin to kill extracellular bacteria. Test antibiotics were added to the culture medium one day post infection, and the total number of surviving intracellular bacteria was determined 24 hours later. The expected serum concentrations for clinically relevant antibiotics was reported in Antimicrobial Agents, Andre Bryskier. ASM Press, Washington D.C. (2005).

Assay [2] concerns MRSA sequestered inside mouse peritoneal macrophages. Briefly: MIC determination for intracellular bacteria sequestered inside murine macrophages. As to conditions: for MIC: Staphylococcus aureus, MRSA, 24 h, read-out: Intracellular MRSA MIC; for killing of MRSA sequestered inside macrophages: clinically achievable concentrations of the antibiotics. It is filed as cell-based, Staphylococcus aureus. The protocol:
Intracellular MIC was determined on bacteria that were sequestered inside mouse peritoneal macrophages (see below for generation of murine peritoneal macrophages). Macrophages were plated in 24 well culture dishes at a density of 4×10^5 cells/mL and infected with MRSA at a ratio of 10-20 bacteria per macrophage. Macrophage cultures were maintained in growth media supplemented with 50 ug/mL of gentamycin (an antibiotic that is active only on extracellular bacteria) to inhibit the growth of extracellular bacteria and test antibiotics were added to the growth media 1 day after infection. The survival of intracellular bacteria was assessed 24 hours after addition of the antibiotics. Macrophages were lysed with Hanks Buffered Saline Solution supplemented with 0.1% Bovine Serum Albumin and 0.1% Triton-X, and serial dilutions of the lysate were made in Phosphate Buffered Saline solution containing 0.05% Tween-20. The number of surviving intracellular bacteria was determined by plating on Tryptic Soy Agar plates with 5% defibrinated sheep blood.
as §1

Assay [3] concerns S. aureus. Put plainly: Mouse intravenous infection with free vs intracellular S. aureus, vancomycin therapy. It is filed as in vivo, Staphylococcus aureus. As to conditions: mice, i.v. infection, vancomycin immediately after infection then once per day, 4 days post infection. As to the method:
FIGS. 1A-1F: Intracellular stores of MRSA are protected from vancomycin in vivo and in vitro. […] Four cohorts of mice were infected by intravenous injection with roughly equivalent doses of viable free bacteria or intracellular bacteria and selected groups were treated with vancomycin immediately after infection and then once per day (see Example 2). FIG. 1B and FIG. 1C show bacterial loads in kidney and brain, respectively of infected mice 4 days post infection. The dashed line indicates the limit of detection for the assay. […] (ND=none detected). […] MRSA (free bacteria) was seeded in media, media+vancomycin, or media+vancomycin and plated on a monolayer of MG63 osteoblasts (FIG. 1E) or Human Brain Microvascular Endothelial Cells (HBMEC, FIG. 1F). Extracellular bacteria (free bacteria) grew well in media alone, but were killed by vancomycin. In wells containing a monolayer of mammalian cells (Intracellular+vanco) a fraction of the bacteria were protected from vancomycin during the first 8 hours after infection and were able to expand within the intracellular compartment over 24 hours. Error bars show standard deviation for triplicate wells.
These experiments compared the virulence of intracellular bacteria versus an equivalent dose of free-living planktonic bacteria, and determined whether the intracellular bacteria are able to establish infection in the presence of vancomycin in vivo. […]

Assay [4] deals with MRSA. Briefly: In vitro survival of MRSA in presence of vancomycin (planktonic, on MG63 osteoblasts, inside peritoneal cells). In kind it is cell-based, Staphylococcus aureus. As to the method: Further analyses in vitro addressed more quantitatively the extent to which intracellular survival facilitates antibiotic evasion. To this end, MG63 osteoblasts were infected with either planktonic MRSA or intracellular MRSA, in the presence of vancomycin.
Infection of osteoblasts or HBMEC. MG63 cell line was obtained from ATCC (CRL-1427) and maintained in RPMI 1640 tissue culture media supplemented with 10 mM Hepes and 10% Fetal Calf Serum (RPMI-10). HBMEC cells (Catalog #1000) and ECM media (catalog#1001) were obtained from SciencCell Research Labs (Carlsbad, Calif.). Cells were plated in 24 well tissue culture plates and cultured to obtain a confluent layer. On the day of the experiment, the cells were washed once in RPMI (without supplements). MRSA or infected peritoneal cells were diluted in complete RPMI-10 and vancomycin was added at 5 ug/mL immediately prior to infection. Peritoneal cells were added to the osteoblasts at 1×10^6 peritoneal cells/mL. A sample of the cells was lysed with 0.1% triton-x to determine the actual concentration of live intracellular bacteria at the time of infection. The actual titer for all infections was determined by plating serial dilutions of the bacteria on Tryptic Soy Agar with 5% defibrinated sheep blood.
MRSA (free bacteria) was seeded in media, media+vancomycin, or media+vancomycin and plated on a monolayer of MG63 osteoblasts (FIG. 1E) or Human Brain Microvascular Endothelial Cells (HBMEC, FIG. 1F). Plates were centrifuged to promote contact of the bacteria with the monolayer. At each time point, the culture supernatant was collected to recover extracellular bacteria or adherent cells were lysed to release intracellular bacteria.

The subject of assay [5] is S. aureus (USA300 NRS384 strain) in murine macrophages. Briefly: In vitro macrophage assay. It is filed as cell-based, Staphylococcus aureus. As to conditions: for reduction of bacterial loads: highest dose tested (100 ug/mL), intracellular bacteria 2 days later; for killing of intracellular MRSA: macrophage assay in vitro. As to the method: S. aureus (USA300 NRS384 strain) was incubated with various doses (100 ug/mL, 10 ug/mL, 1 ug/mL or 0.1 ug/mL) of an anti-S. aureus unconjugated antibody, 103 AAC loaded with 1.9 average antibiotic molecules per antibody (AAR2) or with 102 AAC loaded with 3.9 average antibiotic molecules per antibody (AAR4) for 1 hour to permit binding of the antibody to the bacteria. The resulting opsonized bacteria were fed to murine macrophages and incubated at 37° C. to permit phagocytosis (in vitro macrophage assay). After 2 hours, the infection mix was removed and replaced with normal growth media supplemented with 50 ug/mL of gentamycin to kill any remaining extracellular bacteria. The total number of surviving intracellular bacteria was determined 2 days later by plating serial dilutions of the macrophage lysates on Tryptic Soy Agar plates.

Assay [6] relates to MRSA (USA300 NRS384 strain). Briefly: Murine intravenous infection model (SCID IVIG model). Particulars: for mice having undetectable level of bacteria in hearts: day 4, n=8; for reduction of bacterial load in kidneys: vs naked antibody. In kind it is in vivo, Staphylococcus aureus. The protocol:
Murine intravenous infection model. For studies involving competing human IgG (SCID IVIG model), CB17.SCID mice (Charles River Laboratories, Hollister, Calif.) were reconstituted with GammaGard S/D IGIV Immune Globulin (ASD Healthcare, Brooks Ky.) using a dosing regimen optimized to achieve constant serum levels of at least 10 mg/mL of human IgG in serum. IGIV was administered with an initial intravenous dose of 30 mg per mouse followed by a second dose of 15 mg/mouse by intraperitoneal injection after 6 hours, and subsequent daily dosing of 15 mg per mouse by intraperitoneal injection for 3 consecutive days.
Mice (n=8 for each of antibody or AAC) were infected 4 hours after the first dose of IGIV with 1×10^7 CFU of MRSA (USA300 NRS384 strain) diluted in phosphate buffered saline by intravenous injection. Infected mice were treated with 50 mg/kg of rF1 naked antibody, 103 AAC DAR2 or 102 AAC DAR4. Mice were given a single dose of AAC 26h post infection by intravenous injection, sacrificed on day 4 post infection, and kidneys and hearts were harvested in 5 mL of phosphate buffered saline. The tissue samples were homogenized using a GentleMACS Dissociator™ (Miltenyi Biotec, Auburn, Calif.). The total number of bacteria recovered per organ was determined by plating serial dilutions of the tissue homogenate in PBS 0.05% Tween on Tryptic Soy Agar with 5% defibrinated sheep blood.

Assay [7] concerns the target glycosylated serine-aspartate repeat (SDR) proteins of Staphylococcus aureus, as displayed on whole bacteria, in lysates or in cell wall preparations. Briefly: flow cytometry on whole USA300 bacteria. (A flow cytometer gives signals particle by particle.)
Setting [8] is: CB17.SCID mice with IGIV, 50 mg/kg single i.v. dose 26h post infection, day 4.

For the molecule `CCCCCCCCCC(=O)N[C@@H](Cc1c[nH]c2ccccc12)C(=O)N[C@H](CC(N)=O)C(=O)N[C@@H](CC(=O)O)C(=O)N[C@@H]1C(=O)NCC(=O)N[C@@H](CCCN)C(=O)N[C@@H](CC(=O)O)C(=O)N[C@H](C)C(=O)N[C@@H](CC(=O)O)C(=O)NCC(=O)N[C@H](CO)C(=O)N[C@@H]([C@H](C)CC(=O)O)C(=O)N[C@@H](CC(=O)c2ccccc2N)C(=O)O[C@@H]1C` [Daptomycin], the MIC in assay [1] is 4 µg/mL (≈ 2.47 µM); in assay [2], over 100 µg/mL. In addition, the “killing of MRSA sequestered inside macrophages” value in assay [2] is given as “failed to kill”.

For the molecule `CC(=O)NC[C@H]1CN(c2ccc(N3CCOCC3)c(F)c2)C(=O)O1` [Linezolid], in assay [2], the “killing of MRSA sequestered inside macrophages” value is given as “failed to kill”.

Turning to `CO[C@H]1/C=C/O[C@@]2(C)Oc3c(C)c(O)c4c(O)c(c(/C=N/N5CCN(C)CC5)c(O)c4c3C2=O)NC(=O)/C(C)=C\C=C\[C@H](C)[C@H](O)[C@@H](C)[C@@H](O)[C@@H](C)[C@H](OC(C)=O)[C@@H]1C` [Rifampicin], the “fold higher dose to eliminate intracellular MRSA compared to MIC of planktonic bacteria” value in assay [2] (intracellular vs planktonic) is reported as 6,000 fold.

With `CN[C@H](CC(C)C)C(=O)N[C@H]1C(=O)N[C@@H](CC(N)=O)C(=O)N[C@H]2C(=O)N[C@H]3C(=O)N[C@H](C(=O)N[C@H](C(=O)O)c4cc(O)cc(O)c4-c4cc3ccc4O)[C@H](O)c3ccc(c(Cl)c3)Oc3cc2cc(c3O[C@@H]2O[C@H](CO)[C@@H](O)[C@H](O)[C@H]2O[C@H]2C[C@](C)(N)[C@H](O)[C@H](C)O2)Oc2ccc(cc2Cl)[C@H]1O` [Vancomycin], the MIC in assay [1] is 1 µg/mL (≈ 0.69 µM). Also, in assay [3], the “establishment of infection in kidney and brain under vancomycin therapy” value is on record as “intracellular bacteria, but not planktonic bacteria, were able to establish infection”. Also, the “survival of intracellular MRSA in the leukocytes” value in assay [4] (MRSA sequestered inside peritoneal cells, vancomycin, identical conditions) is listed as “About 15%”. Moreover, the “killing of planktonic bacteria” value in assay [4] (planktonic bacteria exposed to vancomycin alone, 5 ug/mL, one day in culture) is recorded as “efficiently killed”. Moreover, the “surviving bacteria associated with MG63 cells (% of input)” value in assay [4] (planktonic bacteria plated on MG63 osteoblasts, vancomycin, one day after infection) is listed as “approximately 0.06%”. Besides, in assay [2], the MIC was over 100 µg/mL and the “killing of MRSA sequestered inside macrophages” value is on record as “failed to kill”.

Turning to “thio-rF1-HC-121C, LC-V205C-MC-(CBDK-cit)-PAB-(dimethylpipBOR) [AAC 102]”, in assay [5], the “reduction of bacterial loads” value is on record as “more than 4,000 fold” and the “killing of intracellular MRSA” value is on record as “killed intracellular MRSA”. The “eradication of infection in hearts” value in assay [6] (50 mg/kg single i.v. dose, day 4) is on record as “completely eradicated infection in hearts”. Further, in assay [6] (50 mg/kg single i.v. dose), the “mice having undetectable level of bacteria in hearts” value is reported as 8 out of 8. Also, the “reduction of bacterial load in kidneys” value in assay [6] (setting [8]) was “more than 30,000 fold”.

As for “thio-rF1-LC-V205C-MC-(CBDK-cit)-PAB-(dimethylpipBOR) [AAC 103]”, in assay [5], the “reduction of bacterial loads” value worked out at 350 fold and the “killing of intracellular MRSA” value is recorded as “killed intracellular MRSA”. In addition, the “mice having undetectable level of bacteria in hearts” value in assay [6] (50 mg/kg single i.v. dose) is reported as 6 out of 8. For the same molecule, in assay [6] (setting [8]), the “reduction of bacterial burdens in heart” value is on record as “approximately 70 fold” and the “reduction of bacterial load in kidneys” value was “approximately 30 fold”.

B1: monoclonal antibody rF1 (recombinantly produced F1), human IgG1 kappa (antibody, V domains shown)
VH: EVQLVESGGGLVQPGGSLRLSCAASGFTLSRFAMSWVRQAPGRGLEWVASINNGNNPYYARSVQYRFTVSRDVSQNTVSLQMNNLRAEDSATYFCAKDHPSSGWPTFDSWGPGTLVTVSS
VL: DIQLTQSPSALPASVGDRVSITCRASENVGDWLAWYRQKPGKAPNLLIYKTSILESGVPSRFSGSGSGTEFTLTISSLQPDDFATYYCQHYMRFPYTFGQGTKVEIKR
B1 came in with a fold of maximum binding (MFI) against anti-ClfA mAb 4675 in assay [7] of 10 fold.
